Test results as given in the supplement of paper PMC12137928.
Structures can show the parent of a compound that is named as a salt.

System: HCT116
Conditions: 72 h
Procedure, shortened: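 Each well of the 1536-well plates received 250 HCT116 cells, which attached over 5 h. Luminescence was measured with CellTiter-Glo, scaled with vehicle as 0% and positive control as -100%, and pattern-corrected. A four-parameter Hill fit yielded IC50 and maximal efficacy.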

SMILES	IC50 cell viability (ICRF193 0 nM) [µM]	IC50 cell viability (ICRF193 200 nM) [µM]
CCCCCOc1ccc(-c2cc(-c3ccc(C(=O)N[C@H]4C[C@@H](O)[C@@H](O)NC(=O)[C@@H]5[C@@H](O)[C@@H](C)CN5C(=O)[C@H]([C@H](O)CC(N)=O)NC(=O)[C@H]([C@H](O)[C@@H](O)c5ccc(O)c(OS(=O)(=O)O)c5)NC(=O)[C@@H]5C[C@@H](O)CN5C(=O)[C@H]([C@@H](C)O)NC4=O)cc3)no2)cc1 [Micafunginsodium]	> 45.8	> 45.8
CNC[C@@H]1CC[C@@H](N)[C@@H](O[C@H]2[C@H](O)[C@@H](O[C@H]3OC[C@](C)(O)[C@H](NC)[C@H]3O)[C@H](N)C[C@@H]2N)O1 [Micronomicin sulfate]	> 45.8	> 45.8
CCC(=O)O[C@@H]1CC(=O)O[C@H](C)C/C=C/C=C/[C@H](OC(C)=O)[C@H](C)C[C@H](CC=O)[C@H](O[C@@H]2O[C@H](C)[C@@H](O[C@H]3C[C@@](C)(OC(C)=O)[C@@H](OC(=O)CC)[C@H](C)O3)[C@H](N(C)C)[C@H]2O)[C@H]1OC [Midecamycin Acetate]	> 45.8	> 45.8
CCC(=O)O[C@@H]1CC(=O)O[C@H](C)C/C=C/C=C/[C@H](O)[C@H](C)C[C@H](CC=O)[C@H](O[C@@H]2O[C@H](C)[C@@H](O[C@H]3C[C@@](C)(O)[C@@H](OC(=O)CC)[C@H](C)O3)[C@H](N(C)C)[C@H]2O)[C@H]1OC [Midecamycin]	> 45.8	> 45.8
COc1ccc(OC)c(C(O)CNC(=O)CN)c1 (stereo unspecified) [Midodrine hydrochloride]	> 45.8	> 45.8
CC#C[C@]1(O)CC[C@H]2[C@@H]3CCC4=CC(=O)CCC4=C3[C@@H](c3ccc(N(C)C)cc3)C[C@@]21C [Mifepristone]	> 45.8	> 45.8
OCCN1C[C@H](O)[C@@H](O)[C@H](O)[C@H]1CO [Miglitol]	> 45.8	> 45.8
CCCCN1C[C@H](O)[C@@H](O)[C@H](O)[C@H]1CO [Miglustat]	> 45.8	> 45.8
CCN(CC)C(=O)C1(c2ccccc2)CC1CN (stereo unspecified) [Milnacipran hydrochloride]	> 45.8	> 45.8
Cc1[nH]c(=O)c(C#N)cc1-c1ccncc1 [Milrinone]	> 45.8	> 45.8
CCCCCCCCCCCCCCCCOP(=O)([O-])OCC[N+](C)(C)C [Miltefosine]	> 45.8	> 45.8
CN(C)c1ccc(O)c2c1C[C@H]1C[C@H]3[C@H](N(C)C)C(O)=C(C(N)=O)C(=O)[C@@]3(O)C(O)=C1C2=O [Minocycline hydrochloride]	> 45.8	> 45.8
O=P(O)(O)C(O)(Cc1cnc2ccccn12)P(=O)(O)O [Minodronic acid]	> 45.8	> 45.8
Nc1cc(N2CCCCC2)nc(N)[n+]1[O-] [Minoxidil]	> 45.8	> 45.8
Nc1nc(CC(=O)Nc2ccc(CCNC[C@H](O)c3ccccc3)cc2)cs1 [Mirabegron]	> 45.8	> 45.8
CN1CCN2c3ncccc3Cc3ccccc3C2C1 (stereo unspecified) [Mirtazapine]	> 45.8	> 45.8
CO[C@@]12[C@H](COC(N)=O)C3=C(C(=O)C(C)=C(N)C3=O)N1C[C@@H]1N[C@@H]12 [Mitomycin C]	> 45.8	> 45.8
Clc1ccc(C(c2ccccc2Cl)C(Cl)Cl)cc1 (stereo unspecified) [Mitotane]	> 45.8	> 45.8
CN(c1nccc(=O)[nH]1)C1CCN(c2nc3ccccc3n2Cc2ccc(F)cc2)CC1 [Mizolastine]	> 45.8	> 45.8
NC(=O)c1ncn([C@@H]2O[C@H](CO)[C@@H](O)[C@H]2O)c1O [Mizoribine]	> 45.8	> 45.8

SMILES	IC50 cell viability (ICRF193 0 nM) [µM]	IC50 cell viability (ICRF193 200 nM) [µM]
O=C(NCCN1CCOCC1)c1ccc(Cl)cc1 [Moclobemide]	> 45.8	> 45.8
CCOC(=O)[C@H](CCc1ccccc1)N[C@@H](C)C(=O)N1Cc2cc(OC)c(OC)cc2C[C@H]1C(=O)O [Moexipril hydrochloride]	> 45.8	> 45.8
COc1ccc(-c2noc(CC(=O)O)c2-c2ccc(OC)cc2)cc1 [Mofezolac]	> 45.8	> 45.8
CCc1c(C)[nH]c2c1C(=O)C(CN1CCOCC1)CC2 (stereo unspecified) [Molindone hydrochloride]	> 45.8	> 45.8
CCOC(=O)[N-]c1c[n+](N2CCOCC2)no1 [Molsidomine]	> 45.8	> 45.8
Oc1ccc(OCc2ccccc2)cc1 [Monobenzone]	> 45.8	> 45.8
CC(C)(O)c1ccccc1CC[C@@H](SCC1(CC(=O)O)CC1)c1cccc(/C=C/c2ccc3ccc(Cl)cc3n2)c1 [Montelukast sodium]	> 45.8	> 45.8
Cc1ccc(C2(O)CCN(CCCC(=O)c3ccc(F)cc3)CC2)cc1 [Moperone]	> 45.8	> 45.8
Cc1ccsc1/C=C/C1=NCCCN1C [Morantel tartrate]	> 45.8	> 45.8
CCOC(=O)Nc1ccc2c(c1)N(C(=O)CCN1CCOCC1)c1ccccc1S2 [Moricizine hydrochloride]	> 45.8	> 45.8
CCOc1cc(N)c(Cl)cc1C(=O)NCC1CN(Cc2ccc(F)cc2)CCO1 (stereo unspecified) [Mosapride citrate]	> 45.8	> 45.8
CO[C@@]1(NC(=O)C(C(=O)O)c2ccc(O)cc2)C(=O)N2C(C(=O)O)=C(CSc3nnnn3C)CO[C@@H]21 (stereo partly specified) [Moxalactam disodium]	> 45.8	> 45.8
COc1c(N2C[C@@H]3CCCN[C@@H]3C2)c(F)cc2c(=O)c(C(=O)O)cn(C3CC3)c12 [Moxifloxacin (Hydrochloride)]	> 45.8	> 45.8
CC(=O)Oc1cc(C(C)C)c(OCCN(C)C)cc1C [Moxisylyte hydrochloride]	> 45.8	> 45.8
COc1nc(C)nc(Cl)c1NC1=NCCN1 [Moxonidine hydrochloride hydrate]	> 45.8	> 45.8
O=C(O)[C@@H](O)[C@H](O)[C@H](O)[C@@H](O)C(=O)O [Mucic acid]	> 45.8	> 45.8
C/C(=C\C(=O)OCCCCCCCCC(=O)O)C[C@@H]1OC[C@H](C[C@@H]2O[C@H]2[C@@H](C)[C@H](C)O)[C@@H](O)[C@H]1O [Mupirocin]	> 45.8	> 45.8
Cl.Cl.c1ccc(CNCCNCc2ccccc2)cc1 [N,N'-Dibenzylethane-1,2-diamine dihydrochloride]	> 45.8	> 45.8
C[N+](C)(C)CCCCCC[N+](C)(C)C [N,N,N,N',N',N'-Hexamethylhexane-1,6-diaminium]	> 45.8	> 45.8
CN(C)CC(=O)O [N,N-DIMETHYLGLYCINE HYDROCHLORIDE]	> 45.8	> 45.8

SMILES	IC50 cell viability (ICRF193 0 nM) [µM]	IC50 cell viability (ICRF193 200 nM) [µM]
CN(C)Cc1ccccc1 [N,N-Dimethylbenzylamine]	> 45.8	> 45.8
CC(=O)Nc1ccc(S(=O)(=O)Nc2cc(C)on2)cc1 [N-Acetyl sulfamethoxazole]	> 45.8	> 45.8
CC(=O)N[C@@H](Cc1ccc(O)cc1)C(=O)O [N-Acetyl-L-tyrosine]	> 45.8	> 45.8
c1ccc2sc(SNC3CCCCC3)nc2c1 [N-Cyclohexyl-2-benzothiazolesulfenamide]	> 45.8	> 45.8
O=C1CCC(=O)N1CO [N-Hydroxymethylsuccinimide]	> 45.8	> 45.8
CC([C@H](O)c1ccccc1)N(C)C (stereo partly drawn) [N-METHYL (-)EPHEDRINE [1R,2S]]	> 45.8	> 45.8
c1ccc2sc(SN3CCOCC3)nc2c1 [N-Oxydiethylenebenzothiazole-2-sulfenamide]	> 45.8	> 45.8
NC(=O)c1ccc[n+]([C@@H]2O[C@H](COP(=O)([O-])OP(=O)(O)OC[C@H]3O[C@@H](n4cnc5c(N)ncnc54)[C@H](O)[C@@H]3O)[C@@H](O)[C@H]2O)c1 [NAD+]	> 45.8	> 45.8
c1ccc2ccccc2c1 [NAPHTHALENE, ZONE REFINED]	> 45.8	> 45.8
C#C[C@]1(OC(C)=O)CC[C@H]2[C@@H]3CCC4=CC(=O)CC[C@@H]4[C@H]3CC[C@@]21C [NORETHINDRONE ACETATE]	> 45.8	> 45.8
C#C[C@]1(O)CC[C@H]2[C@@H]3CCC4=C(CCC(=O)C4)[C@H]3CC[C@@]21C [NORETHYNODREL]	> 45.8	> 45.8
CC(C)N(CCCCOCC(=O)NS(C)(=O)=O)c1cnc(-c2ccccc2)c(-c2ccccc2)n1 [NS-304]	> 45.8	> 45.8
CC1C=CC=CCCC=CC=CC=CC=CC(OC2OC(C)C(O)C(N)C2O)CC2OC(O)(CC(O)C(O)CCC(O)CC(O)CC(O)CC(=O)OC(C)C(C)C1O)CC(O)C2C(=O)O (stereo unspecified) [NYSTATIN]	> 45.8	> 45.8
COc1ccc2cc(CCC(C)=O)ccc2c1 [Nabumetone]	> 45.8	> 45.8
CC1CCc2c(N3CCC(O)CC3)c(F)cc3c(=O)c(C(=O)O)cn1c23 (stereo unspecified) [Nadifloxacin]	> 45.8	> 45.8
CC(C)(C)NCC(O)COc1cccc2c1CC(O)C(O)C2 (stereo unspecified) [Nadolol]	> 45.8	> 45.8
N=C(N)Nc1ccc(C(=O)Oc2ccc3cc(C(=N)N)ccc3c2)cc1 [Nafamostat mesilate]	> 45.8	> 45.8
CCOc1ccc2ccccc2c1C(=O)N[C@@H]1C(=O)N2[C@@H]1SC(C)(C)[C@@H]2C(=O)O [Nafcillin sodium monohydrate]	> 45.8	> 45.8
